Laboratory results from paper PMC8865654, “Chiral evasion and stereospecific antifolate resistance in Staphylococcus aureus” (PLoS Computational Biology, 2022).

Legend:
[1] = biological target: T1, Staphylococcus aureus dihydrofolate reductase (SaDHFR), wild type (Staphylococcus aureus, UniProt P0A017); experiment: X-ray crystal structure (ternary with R-27); enzyme inhibition assay with isolated t-NADPH; format: biochemical
T1 construct: gene folA

[2] = biological target: T1, Staphylococcus aureus dihydrofolate reductase (SaDHFR), wild type; experiment: X-ray crystal structure (re-refined from 4XEC data and newly deposited); also enzyme inhibition with t-NADPH pre-incubation (Fig E in S1 Text); format: binding

T1 sequence (P0A017 2-159): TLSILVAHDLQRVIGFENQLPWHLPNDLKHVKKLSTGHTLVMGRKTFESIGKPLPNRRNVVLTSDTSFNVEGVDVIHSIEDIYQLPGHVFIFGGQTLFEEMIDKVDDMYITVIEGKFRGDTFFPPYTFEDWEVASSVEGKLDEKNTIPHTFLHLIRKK

SMILES	IC50 [1]	X-ray crystal structure (re-refined from 4XEC data and newly deposited); also en [2]
NC(=O)C1=CN2[C@@H]3O[C@H](COP(=O)(O)OP(=O)(O)OC[C@H]4O[C@@H](n5cnc6c(N)ncnc65)[C@H](OP(=O)(O)O)[C@@H]4O)[C@@H](O)[C@H]3O[C@@H]2CC1 [t-NADPH]	111 ± 6 µM	
CCc1nc(N)nc(N)c1C#C[C@H](C)c1cc(OC)cc(-c2ccncc2)c1 [R-27]		the PDB ID for R-27:t-NADPH:SaDHFR is 7T7S
